Test results reported in US20060154880A1, “Methods and compositions using immunomodulatory compounds for treatment and management of parasitic diseases” (priority 2004, published 2006).

How the values were obtained:
[1] = cited from earlier work; for hygroscopicity: polymorphic form, solid state; for stability / interconversion of polymorphic form: solvent system as stated
[2] = test system: TNF-α production; assay: Inhibition of TNF-α production following LPS-stimulation of human PBMC; format: cell-based
[3] = test system: IL-1β production; assay: LPS-stimulated production of IL-1β by PBMC; format: cell-based
[4] = test system: IL-10 production; assay: LPS-stimulated production of IL-10 by PBMC; format: cell-based
[5] = test system: IL-2 production; assay: Augmentation of IL-2 production following TCR activation of PBMC; format: cell-based
[6] = test system: IL-6 production; assay: LPS-stimulated production of IL-6 by PBMC; format: cell-based
[7] = test system: IFN-γ production; assay: Augmentation of IFN-γ production following TCR activation of T-cells; format: cell-based
[8] = test system: T-cells; assay: Stimulation of T-cell proliferation following primary induction by TCR activation; format: cell-based

## Nc1cccc2c1CN(C1CCC(=O)NC1=O)C2=O (stereo not shown) [Form D, 3-(4-amino-1-oxo-1,3 dihydro-isoindol-2-yl)-piperidene-2,6-dione]
[1]
  hygroscopicity: either weakly or not hygroscopic

## Nc1cccc2c1CN(C1CCC(=O)NC1=O)C2=O (stereo not shown) [Form C, 3-(4-amino-1-oxo-1,3 dihydro-isoindol-2-yl)-piperidene-2,6-dione]
[1]
  hygroscopicity: not hygroscopic below about 85% RH

## Nc1cccc2c1CN(C1CCC(=O)NC1=O)C2=O (stereo not shown) [Form A, 3-(4-amino-1-oxo-1,3 dihydro-isoindol-2-yl)-piperidene-2,6-dione]
[1]
  hygroscopicity: weakly or not hygroscopic
  stability / interconversion of polymorphic form: most thermodynamically stable anhydrous polymorph

## Nc1cccc2c1CN(C1CCC(=O)NC1=O)C2=O (stereo not shown)
[2]
  effect on LPS-stimulated production of TNF-α by PBMC: dose-dependent inhibition
[3]
  effect on LPS-stimulated production of IL-1β by PBMC: dose-dependent inhibition
[4]
  effect on production of the anti-inflammatory cytokine IL-10: increased production
[5]
  potency relative to thalidomide in augmenting the production of IL-2: 50-100 times
[6]
  effect on LPS-stimulated production of IL-6 by PBMC: dose-dependent inhibition
[7]
  potency relative to thalidomide in augmenting the production of IFN-γ: 50-100 times
[8]
  potency relative to thalidomide in stimulating the proliferation of T-cells: 50-100 times

## Nc1cccc2c1CN(C1CCC(=O)NC1=O)C2=O (stereo not shown) [Form B, 3-(4-amino-1-oxo-1,3 dihydro-isoindol-2-yl)-piperidene-2,6-dione]
[1]
  stability / interconversion of polymorphic form: converts to Form E in aqueous solvent systems

## Nc1cccc2c1CN(C1CCC(=O)NC1=O)C2=O (stereo not shown) [Form E, 3-(4-amino-1-oxo-1,3 dihydro-isoindol-2-yl)-piperidene-2,6-dione]
[1]
  stability / interconversion of polymorphic form: most stable form
